Reference: US8357681B2, “Composition and method for controlling pests” (priority 2008, dated 2013)

Tested on: Pythium ultimum, pathogen of cucumber damping-off
Experiment: Cucumber damping-off seed treatment test (Test Example 1)
Assay type: in vivo
Details: cucumber seeds, 18° C., 13 days
Source text: An acetone solution of ethaboxam and an acetone solution of clothianidin were mixed to prepare mixed liquids containing ethaboxam and clothianidin in predetermined concentration. These mixed liquids were adhered on the surface of cucumber (Sagamihanjiro) seeds and allowed to stand still overnight. A plastic pot was filled with sandy soil and the seeds were disseminated on it. Then the seeds were covered with sandy soil which had been mixed with a bran medium on which Pythium ultimum, pathogen of cucumber damping-off, had been allowed to grow. They were irrigated and allowed to grow at 18° C. under humidity for 13 days, and thereafter control effect was checked.
As a comparison, acetone solutions containing ethaboxam in the predetermined concentration and acetone solutions containing clothianidin in the predetermined concentration were prepared and subjected to similar tests.
The incidence of disease was calculated by Equation 1 and the control value was calculated by Equation 2 based on the incidence of disease.
A: Incidence of disease of plant in untreated area
B: Incidence of disease of plant in treated area
E=X+Y−(X×Y)/100 “Equation 2”

CCNc1nc(CC)c(C(=O)NC(C#N)c2cccs2)s1 (stereo not shown) [Ethaboxam, ethaboxam]
Actual control value (ethaboxam 5 g ai/100 kg-seed alone): 60%
Actual control value (ethaboxam 10 g ai/100 kg-seed alone): 73%

CN/C(=N\[N+](=O)[O-])NCc1cnc(Cl)s1 [clothianidin]
Actual control value (clothianidin 150 g ai/100 kg-seed alone): 0.0%
Actual control value (clothianidin 300 g ai/100 kg-seed alone): 0.0%
